In patent publication US9067938B2, “Pyrazolopyridinone derivatives as LPA receptor antagonists” (Merck Patent GmbH, priority 2010, dated 2015):
pEC50, pIC50: −log10 of the molar value.

Target: T1, P2Y10-Gα16 (Homo sapiens, UniProt O00398)
T1 construct: "P2Y10-Gα16"; fused on or other part: The promiscuous G-protein alpha subunit G alpha 16 (GNA15) is fused to the receptor; By the printed name order it probably sits at the C-terminus; It is a coupling handle and not part of the key
Assay: not given
Conditions: induction of Ca2+ transients via P2Y10-Gα16; cited from earlier work

T1 sequence (O00398 whole entry, the tested form may be a part): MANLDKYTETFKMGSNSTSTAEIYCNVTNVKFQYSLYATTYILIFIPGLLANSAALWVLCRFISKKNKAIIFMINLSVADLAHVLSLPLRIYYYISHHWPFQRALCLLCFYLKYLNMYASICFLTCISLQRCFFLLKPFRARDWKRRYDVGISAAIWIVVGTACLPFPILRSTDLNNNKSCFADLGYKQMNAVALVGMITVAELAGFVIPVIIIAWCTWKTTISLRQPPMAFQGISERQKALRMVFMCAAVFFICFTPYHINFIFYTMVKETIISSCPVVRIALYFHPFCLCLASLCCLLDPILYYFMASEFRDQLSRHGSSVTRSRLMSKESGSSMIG

Row | Compound | pEC50
1 | CCCCCCCCCCCCC/C=C/[C@@H](O)[C@@H](N)COP(=O)(O)O [Compound S1P, sphingosine 1-phosphate] | 7.28
2 | Lysophosphatidic acid [LPA] | 6.89

Target: LPA2 receptor (Homo sapiens, UniProt Q9HBW0)
Assay: LPA2R-calciumflux assay
Format: cell-based
Conditions: U2OS cells recombinant expressing LPA2R; LPA-induced intracellular calcium signal (FLIPR Tetra); 10 concentrations from 30 uM to 1 nM, 1% DMSO
Source text: Description of the LPA2R Assay
Cell Cultivation/Propagation
LPA2R-calciumflux Assay Protocol
The assay detects intra cellular calcium which is generated by cells upon activation of the LPA2 receptor by its ligand LPA. This transient calcium mobilisation can be monitored using a commercial calcium detection kit (e.g. from Molecular Devices). The main component of such a kit is a dye, which becomes fluorescent when calcium is present—a transient fluorescence signal after laddition of a ligand to a test well are the result. Readers like the FLIPR (from Molecular Devices) can be used to monitor such transient “Ca-flux” signals.
The signals are calculated according to peak maximum minus base line. Compounds which are antogonists of LPA lead to a decreased mobilisation of intracellular calcium and thus to a lower signal. The assay is performed in microplates (384 wells per plate).
The assay itself is run according to the following procedure: • 50 uL seed cells (10000 cells/well in DMEM buffer) • Incubate 24 h at 37° C., 10% CO2 • aspirate medium • 50 uL add calcium dye 1×HBSS/HEPES buffer • incubate 1 h at 37° C. (“loading”) • equilibrate 10 min at RT • 5 uL add compounds in HEPES buffer • shake 10 sec. @ 1000 rpm • incubate 15 min at RT • 20 uL add LPA (in the FLIPR Tetra) in KREBS-Puffer/BSA & measurement
The cells are seeded in DMEM buffer (DMEM, 10% FCS, 10 mM HEPES, 1% Pen/Strep).
Dye loading is done in HBSS/HEPES buffer (100 mL 10×HBSS+20 mL 1M HEPES+880 mL water, pH 7.4)
The LPA is added in Krebs/BSA buffer (120 mM NaCl, 5 mM KCl, 0.62 mM MgSO4, 1.8 mM CaCl2, 10 mM HEPES, 6 mM D(+)-Glucose, 0.2% BSA, pH 7.4).
The compounds are pre-diluted in HEPES buffer (20 mM, pH 7.4), whereby the final DMSO content in the assay is kept at 1%. The compounds are pre-diluted in order to generate dose response series on the microplates. The dose response series consist of 10 concentrations for each compound from 30 uM final to 1 nM final. From all compound wells the resulting signals are referred to control wells (located on each plate besides the compound wells) in terms of % activity.
[formula] From these % activity values—along with the corresponding compound concentrations—IC50 values are fitted for each compound using standard fitting programs such as Graphpad Prism. Here the method “log(inhibitor) vs. response—Variable slope” is used. Reader Settings (FLIPR Tetra) • ExcWLength:470—495 • Em.Wlength: 515—575 • Gain: 50 • Exp. Time: 0,4 • Exc.Intensity: 80 • READ with TF • First read interval: 1,00 s • Number of first reads: 240 • Reads before dispense: 10 • Second read interval: 1,00 s • Number of second reads: 0 • Save Images No

LPA2 receptor, sequence (Q9HBW0 whole entry): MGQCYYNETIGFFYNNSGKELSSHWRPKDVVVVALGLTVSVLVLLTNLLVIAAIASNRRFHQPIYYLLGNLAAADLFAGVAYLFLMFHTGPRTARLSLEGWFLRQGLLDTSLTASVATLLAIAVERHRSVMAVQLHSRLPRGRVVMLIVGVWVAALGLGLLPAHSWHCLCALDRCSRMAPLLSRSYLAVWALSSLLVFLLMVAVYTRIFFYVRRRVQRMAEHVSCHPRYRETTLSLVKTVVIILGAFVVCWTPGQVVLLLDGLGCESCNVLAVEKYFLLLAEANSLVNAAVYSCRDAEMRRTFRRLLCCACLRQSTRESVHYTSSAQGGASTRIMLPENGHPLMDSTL

Row | Compound | pIC50
3 | COc1ccc(-c2n[nH]c3c2C(O)(C(F)(F)F)CC(=O)N3)cc1OC (stereo not shown) [Compound 31, 3-(3,4-Dimethoxy-phenyl)-4-hydroxy-4-trifluoromethyl-1,4,5,7-tetrahydro-pyrazolo[3,4-b]pyridin-6-one] | > 6.00
4 | COc1cccc(-c2n[nH]c3c2C(O)(C(F)(F)F)CC(=O)N3)c1 (stereo not shown) [Compound 32, 4-Hydroxy-3-(3-methoxy-phenyl)-4-trifluoromethyl-1,4,5,7-tetrahydro-pyrazolo[3,4-b]pyridin-6-one] | 5.00 to 6.00
5 | Cc1c(-c2n[nH]c3c2C(O)(C(F)(F)F)CC(=O)N3)cnn1C (stereo not shown) [Compound 33, 3-(1,5-Dimethyl-1H-pyrazol-4-yl)-4-hydroxy-4-trifluoromethyl-1,4,5,7-tetrahydro-pyrazolo[3,4-b]pyridin-6-one] | 5.00 to 6.00
6 | CCN1C(=O)CC(O)(C(F)(F)F)c2c(-c3ccccc3)n[nH]c21 (stereo not shown) [Compound 34, 7-Ethyl-4-hydroxy-3-phenyl-4-trifluoromethyl-1,4,5,7-tetrahydro-pyrazolo[3,4-b]pyridin-6-one] | < 5.00
7 | O=C1CC(O)(c2cc(C(F)(F)F)cc(C(F)(F)F)c2)c2c(-c3ccccc3)n[nH]c2N1 (stereo not shown) [Compound 35, 4-(3,5-Bis-trifluoromethyl-phenyl)-4-hydroxy-3-phenyl-1,4,5,7-tetrahydro-pyrazolo[3,4-b]pyridin-6-one] | < 5.00
